Biological target: T1, Dopamine beta hydroxylase (Homo sapiens, UniProt P09172)
T1 construct: 125 μl of plasma; tissue Instituto Português do Sangue Transplantação; host or cells: human plasma from healthy donors
T1 sequence (P09172 40-617 limits assumed): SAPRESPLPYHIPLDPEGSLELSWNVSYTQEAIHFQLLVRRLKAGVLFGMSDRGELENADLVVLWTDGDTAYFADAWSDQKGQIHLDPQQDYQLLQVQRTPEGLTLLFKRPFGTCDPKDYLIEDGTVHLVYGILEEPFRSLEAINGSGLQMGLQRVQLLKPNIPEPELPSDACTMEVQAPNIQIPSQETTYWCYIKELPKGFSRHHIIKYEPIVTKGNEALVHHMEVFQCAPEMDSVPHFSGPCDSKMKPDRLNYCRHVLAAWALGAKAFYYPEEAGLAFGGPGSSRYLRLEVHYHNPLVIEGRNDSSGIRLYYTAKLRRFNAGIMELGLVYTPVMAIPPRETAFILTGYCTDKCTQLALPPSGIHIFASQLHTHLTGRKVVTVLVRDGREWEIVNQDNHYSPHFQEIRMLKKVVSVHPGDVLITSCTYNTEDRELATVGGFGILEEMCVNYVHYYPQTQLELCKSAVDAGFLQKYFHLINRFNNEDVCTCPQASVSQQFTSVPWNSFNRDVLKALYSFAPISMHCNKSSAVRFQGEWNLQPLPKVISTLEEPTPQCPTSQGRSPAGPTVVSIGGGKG
Experiment: Dopamine beta hydroxylase activity in human plasma
Assay type: biochemical
Details: for Plasma (0.01 μM), activity in % of control: inhibitor 0.01 μM; for Plasma (0.1 μM), activity in % of control: inhibitor 0.1 μM
How it was run: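 Octopamine production from tyramine over 45 min at 37° C, measured photometrically at 330 nm after SCX extraction and periodate oxidation against an octopamine standard curve, indicates plasma DβH activity. Compounds tested at final 10, 100 and 1000 nM in human plasma, pH 5.0 cofactor buffer, 10 min preincubation; results as % of control.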

Compound	Plasma (0.01 μM), activity in % of control	Plasma (0.1 μM), activity in % of control
Cl.Cn1c(CCNC2CCCCC2)c2n(c1=S)C[C@@]1(c3cc(Br)ccc3F)C[C@@H]21 [Example 341, (5aS,6aR)-5a-(5-bromo-2-fluorophenyl)-1-(2-(cyclohexylamino)ethyl)-2-methyl-5,5a,6,6a-tetrahydrocyclopropa[3,4]pyrrolo[1,2-c]imidazole-3(2H)-thione hydrochloride]	91.1 % of control	33.6 % of control
Cn1c(CC(=O)N[C@@H]2CCNC2=O)c2n(c1=S)C[C@H](c1c(F)ccc(Br)c1F)C2 [Example 342, 2-((S)-6-(3-bromo-2,6-difluorophenyl)-2-methyl-3-thioxo-2,5,6,7-tetrahydro-3H-pyrrolo[1,2-c]imidazol-1-yl)-N—((R)-2-oxopyrrolidin-3-yl)acetamide]	66.6 % of control	16.5 % of control
Cl.Cn1c(CCNCc2ccccn2)c2n(c1=S)C[C@@]1(c3cc(Cl)ccc3F)C[C@@H]21 [Example 343, (5aS,6aR)-5a-(5-chloro-2-fluorophenyl)-2-methyl-1-(2-((pyridin-2-ylmethyl)amino)ethyl)-5,5a,6,6a-tetrahydrocyclopropa[3,4]pyrrolo[1,2-c]imidazole-3(2H)-thione Hydrochloride]	94.9 % of control	59.5 % of control
Cn1c(CC(=O)N2CCC[C@@H]2C(F)(F)F)c2n(c1=S)C[C@@H](c1c(F)ccc(F)c1F)C2 [Example 344, 2-((R)-2-methyl-3-thioxo-6-(2,3,6-trifluorophenyl)-2,5,6,7-tetrahydro-3H-pyrrolo[1,2-c]imidazol-1-yl)-1-((R)-2-(trifluoromethyl)pyrrolidin-1-yl)ethan-1-one]	88.2 % of control	73.7 % of control
Cn1c(CC(=O)NC2CCCC2C#N)c2n(c1=S)C[C@@H](c1c(F)ccc(F)c1F)C2 (stereo partly drawn) [Example 345, N-(2-cyanocyclopentyl)-2-((R)-2-methyl-3-thioxo-6-(2,3,6-trifluorophenyl)-2,5,6,7-tetrahydro-3H-pyrrolo[1,2-c]imidazol-1-yl)acetamide]	77.2 % of control	40.3 % of control
Cl.Cn1cc(CNCCc2c3n(c(=S)n2C)C[C@@]2(c4cc(Cl)ccc4F)C[C@@H]32)cn1 [Example 346, (5aS,6aR)-5a-(5-chloro-2-fluorophenyl)-2-methyl-1-(2-(((1-methyl-1H-pyrazol-4-yl)methyl)amino)ethyl)-5,5a,6,6a-tetrahydrocyclopropa[3,4]pyrrolo[1,2-c]imidazole-3(2H)-thione Hydrochloride]	109.6 % of control	74.9 % of control
Cn1c(CC(=O)Nc2cnoc2)c2n(c1=S)C[C@@H](c1c(F)ccc(F)c1F)C2 [Example 347, (R)—N-(isoxazol-4-yl)-2-(2-methyl-3-thioxo-6-(2,3,6-trifluorophenyl)-2,5,6,7-tetrahydro-3H-pyrrolo[1,2-c]imidazol-1-yl)acetamide]	79.0 % of control	17.7 % of control
Cn1c(CC(=O)N2CC[C@H](C#N)C2)c2n(c1=S)C[C@@H](c1c(F)ccc(F)c1F)C2 [Example 348, (S)-1-(2-((R)-2-methyl-3-thioxo-6-(2,3,6-trifluorophenyl)-2,5,6,7-tetrahydro-3H-pyrrolo[1,2-c]imidazol-1-yl)acetyl)pyrrolidine-3-carbonitrile]	92.4 % of control	44.8 % of control
Cc1nnc(NC(=O)Cc2c3n(c(=S)n2C)C[C@H](c2c(F)ccc(Cl)c2F)C3)o1 [Example 349, (S)-2-(6-(3-chloro-2,6-difluorophenyl)-2-methyl-3-thioxo-2,5,6,7-tetrahydro-3H-pyrrolo[1,2-c]imidazol-1-yl)-N-(5-methyl-1,3,4-oxadiazol-2-yl)acetamide]	72.3 % of control	12.5 % of control
Cn1cc(NC(=O)Cc2c3n(c(=S)n2C)C[C@H](c2c(F)ccc(Cl)c2F)C3)cn1 [Example 350, (S)-2-(6-(3-chloro-2,6-difluorophenyl)-2-methyl-3-thioxo-2,5,6,7-tetrahydro-3H-pyrrolo[1,2-c]imidazol-1-yl)-N-(1-methyl-1H-pyrazol-4-yl)acetamide]	85.7 % of control	28.2 % of control
Cn1c(CC(=O)Nc2cnsc2)c2n(c1=S)C[C@@H](c1c(F)ccc(F)c1F)C2 [Example 351, (R)—N-(isothiazol-4-yl)-2-(2-methyl-3-thioxo-6-(2,3,6-trifluorophenyl)-2,5,6,7-tetrahydro-3H-pyrrolo[1,2-c]imidazol-1-yl)acetamide]	46.2 % of control	16.5 % of control
Cn1c(CC(=O)NCC2CCOCC2)c2n(c1=S)C[C@H](c1c(F)ccc(Cl)c1F)C2 [Example 352, (S)-2-(6-(3-chloro-2,6-difluorophenyl)-2-methyl-3-thioxo-2,5,6,7-tetrahydro-3H-pyrrolo[1,2-c]imidazol-1-yl)-N-((tetrahydro-2H-pyran-4-yl)methyl)acetamide]	40.8 % of control	10.9 % of control
Cn1c(CC(=O)N2CCC(CF)C2)c2n(c1=S)C[C@@H](c1c(F)ccc(F)c1F)C2 (stereo partly drawn) [Example 353, 1-(3-(fluoromethyl)pyrrolidin-1-yl)-2-((R)-2-methyl-3-thioxo-6-(2,3,6-trifluorophenyl)-2,5,6,7-tetrahydro-3H-pyrrolo[1,2-c]imidazol-1-yl)ethan-1-one]	90.6 % of control	38.4 % of control
Cn1c(CC(=O)N[C@@H]2CCCNC2=O)c2n(c1=S)C[C@@H](c1c(F)ccc(F)c1F)C2 [Example 354, 2-((R)-2-methyl-3-thioxo-6-(2,3,6-trifluorophenyl)-2,5,6,7-tetrahydro-3H-pyrrolo[1,2-c]imidazol-1-yl)-N—((R)-2-oxopiperidin-3-yl)acetamide]	106.2 % of control	53.4 % of control
Cn1c(CC(=O)N[C@H]2CC[C@H](O)CC2)c2n(c1=S)C[C@@]1(c3cc(Cl)ccc3F)C[C@@H]21 [Example 355, 2-((5aS,6aR)-5a-(5-chloro-2-fluorophenyl)-2-methyl-3-thioxo-2,3,5,5a,6,6a-hexahydrocyclopropa[3,4]pyrrolo[1,2-c]imidazol-1-yl)-N-((1r,4R)-4-hydroxycyclohexyl)acetamide]	56.4 % of control	14.0 % of control
Cn1c(CC(=O)NC2CCCCC2)c2n(c1=S)C[C@H](c1c(F)ccc(Cl)c1F)C2 [Example 356, (S)-2-(6-(3-chloro-2,6-difluorophenyl)-2-methyl-3-thioxo-2,5,6,7-tetrahydro-3H-pyrrolo[1,2-c]imidazol-1-yl)-N-cyclohexylacetamide]	35.4 % of control	6.6 % of control
